Key:
[1] = system: HCV genotype 1a (H77 strain) replicon in HUH-7 cells; experiment: HCV replicon luciferase reporter assay, genotype 1a; assay type: cell-based; conditions: Hepatitis C virus, Huh-7, 72 h, HCV genotype 1a replicon luciferase assay, 3 days incubation, range class, read-out: LE_1a (EC50, range)
Summary of the method: (§1)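 Replicon inhibition for both genotypes was measured as Renilla luciferase signal (EnduRen, 7.5 μM final, 2 h) after 3-day, 37° C exposure of replicon-bearing HUH-7 cells in 4% FCS DMEM, 0.5% DMSO. The 1b construct carries S1179I; the 1a H77 construct carries P1496L and S2204I. Twenty-point, 3-fold dilutions were fitted four-parametrically for EC50, and CC50 was taken from multiplexed Cell Titer-Blue.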

[2] = system: HCV genotype 1b (Con1) replicon in HUH-7 cells; experiment: HCV replicon luciferase reporter assay, genotype 1b; assay type: cell-based; conditions: Hepatitis C virus, Huh-7, 72 h, HCV genotype 1b replicon luciferase assay, 3 days incubation, range class, read-out: LE_1b (EC50, range)
Summary of the method: as §1

SMILES	EC50 [1]	EC50 [2]
COc1ccc2c(O[C@@H]3C[C@H]4C(=O)N[C@]5(C(=O)NS(=O)(=O)C6(C)CC6)C[C@H]5/C=C\CC[C@H](C)C[C@@H](C)[C@H](NC(=O)O[C@@H]5C[C@@H]6C[C@@H]6C5)C(=O)N4C3)nc(N(C)C)cc2c1 [Compound 3110, (1R,3r,5S)-bicyclo[3.1.0]hexan-3-yl((2R,6S,7R,9S,13aS,14aR,16aS,Z)-2-((3-(dimethylamino)-6-methoxyisoquinolin-1-yl)oxy)-7,9-dimethyl-14a-(((1-methylcyclopropyl)sulfonyl)carbamoyl)-5,16-dioxo-1,2,3,5,6,7,8,9,10,11,13a,14,14a,15,16,16a-hexadecahydrocyclopropa[e]pyrrolo[1,2-a][1,4]diazacyclopentadecin-6-yl)carbamate]	4.82 to 103 nM	4.82 to 103 nM
COc1ccc2c(O[C@@H]3C[C@H]4C(=O)N[C@]5(C(=O)NS(=O)(=O)C6(C)CC6)C[C@H]5/C=C\CC[C@@H](C)C[C@@H](C)[C@H](NC(=O)O[C@@H]5C[C@@H]6C[C@@H]6C5)C(=O)N4C3)nc(N(C)C)cc2c1 [Compound 3111, (1R,3r,5S)-bicyclo[3.1.0]hexan-3-yl((2R,6S,7R,9R,13aS,14aR,16aS,Z)-2-((3-(dimethylamino)-6-methoxyisoquinolin-1-yl)oxy)-7,9-dimethyl-14a-(((1-methylcyclopropyl)sulfonyl)carbamoyl)-5,16-dioxo-1,2,3,5,6,7,8,9,10,11,13a,14,14a,15,16,16a-hexadecahydrocyclopropa[e]pyrrolo[1,2-a][1,4]diazacyclopentadecin-6-yl)carbamate]	< 5.46 nM	4.82 to 103 nM
COc1ccc2c(O[C@@H]3C[C@H]4C(=O)N[C@]5(C(=O)NS(=O)(=O)C6(C)CC6)C[C@H]5/C=C\CC[C@H](C)C[C@@H](C)[C@H](NC(=O)O[C@H](C)C(F)(F)F)C(=O)N4C3)nc(N(C)C)cc2c1 [Compound 3112, (R)-1,1,1-trifluoropropan-2-yl ((2R,6S,7R,9S,13aS,14aR,16aS,Z)-2-((3-(dimethylamino)-6-methoxyisoquinolin-1-yl)oxy)-7,9-dimethyl-14a-(((1-methylcyclopropyl)sulfonyl)carbamoyl)-5,16-dioxo-1,2,3,5,6,7,8,9,10,11,13a,14,14a,15,16,16a-hexadecahydrocyclopropa[e]pyrrolo[1,2-a][1,4]diazacyclopentadecin-6-yl)carbamate]	4.82 to 103 nM	4.82 to 103 nM
COc1ccc2c(O[C@@H]3C[C@H]4C(=O)N[C@]5(C(=O)NS(=O)(=O)C6(C)CC6)C[C@H]5/C=C\CC[C@@H](C)C[C@@H](C)[C@H](NC(=O)O[C@H](C)C(F)(F)F)C(=O)N4C3)nc(N(C)C)cc2c1 [Compound 3113, (R)-1,1,1-trifluoropropan-2-yl ((2R,6S,7R,9R,13aS,14aR,16aS,Z)-2-((3-(dimethylamino)-6-methoxyisoquinolin-1-yl)oxy)-7,9-dimethyl-14a-(((1-methylcyclopropyl)sulfonyl)carbamoyl)-5,16-dioxo-1,2,3,5,6,7,8,9,10,11,13a,14,14a,15,16,16a-hexadecahydrocyclopropa[e]pyrrolo[1,2-a][1,4]diazacyclopentadecin-6-yl)carbamate]	< 5.46 nM	4.82 to 103 nM
[2H]C([2H])([2H])C(OC(=O)N[C@@H]1C(=O)N2C[C@H](Oc3nc(N(C)C)cc4cc(OC)ccc34)C[C@H]2C(=O)N[C@]2(C(=O)NS(=O)(=O)C3(C)CC3)C[C@H]2/C=C\CC[C@H](C)C[C@H]1C)(C([2H])([2H])[2H])C(F)(F)F [Compound 3114, 1,1,1,3,3,3-hexadeutero-2-(trifluoromethyl)propan-2-yl((2R,6S,7R,9S,13aS,14aR,16aS,Z)-2-((3-(dimethylamino)-6-methoxyisoquinolin-1-yl)oxy)-7,9-dimethyl-14a-(((1-methylcyclopropyl)sulfonyl)carbamoyl)-5,16-dioxo-1,2,3,5,6,7,8,9,10,11,13a,14,14a,15,16,16a-hexadecahydrocyclopropa[e]pyrrolo[1,2-a][1,4]diazacyclopentadecin-6-yl)carbamate]	4.82 to 103 nM	4.82 to 103 nM
[2H]C([2H])([2H])C(OC(=O)N[C@@H]1C(=O)N2C[C@H](Oc3nc(N(C)C)cc4cc(OC)ccc34)C[C@H]2C(=O)N[C@]2(C(=O)NS(=O)(=O)C3(C)CC3)C[C@H]2/C=C\CC[C@@H](C)C[C@H]1C)(C([2H])([2H])[2H])C(F)(F)F [Compound 3115, 1,1,1,3,3,3-hexadeutero-2-(trifluoromethyl)propan-2-yl((2R,6S,7R,9R,13aS,14aR,16aS,Z)-2-((3-(dimethylamino)-6-methoxyisoquinolin-1-yl)oxy)-7,9-dimethyl-14a-(((1-methylcyclopropyl)sulfonyl)carbamoyl)-5,16-dioxo-1,2,3,5,6,7,8,9,10,11,13a,14,14a,15,16,16a-hexadecahydrocyclopropa[e]pyrrolo[1,2-a][1,4]diazacyclopentadecin-6-yl)carbamate]	4.82 to 103 nM	4.82 to 103 nM
COc1ccc2c(O[C@@H]3C[C@H]4C(=O)N[C@]5(C(=O)NS(=O)(=O)C6(C)CC6)C[C@H]5/C=C\CC[C@H](C)C[C@@H](C)[C@H](NC(=O)OC(C)(C)C(F)(F)F)C(=O)N4C3)nc(N3CCCC3)cc2c1 [Compound 3118, 1,1,1-trifluoro-2-methylpropan-2-yl((2R,6S,7R,9S,13aS,14aR,16aS,Z)-2-((6-methoxy-3-(pyrrolidin-1-yl)isoquinolin-1-yl)oxy)-7,9-dimethyl-14a-(((1-methylcyclopropyl)sulfonyl)carbamoyl)-5,16-dioxo-1,2,3,5,6,7,8,9,10,11,13a,14,14a,15,16,16a-hexadecahydrocyclopropa[e]pyrrolo[1,2-a][1,4]diazacyclopentadecin-6-yl)carbamate]	4.82 to 103 nM	4.82 to 103 nM
COc1ccc2c(O[C@@H]3C[C@H]4C(=O)N[C@]5(C(=O)NS(=O)(=O)C6(C)CC6)C[C@H]5/C=C\CC[C@@H](C)C[C@@H](C)[C@H](NC(=O)OC(C)(C)C(F)(F)F)C(=O)N4C3)nc(N3CCCC3)cc2c1 [Compound 3119, 1,1,1-trifluoro-2-methylpropan-2-yl((2R,6S,7R,9R,13aS,14aR,16aS,Z)-2-((6-methoxy-3-(pyrrolidin-1-yl)isoquinolin-1-yl)oxy)-7,9-dimethyl-14a-(((1-methylcyclopropyl)sulfonyl)carbamoyl)-5,16-dioxo-1,2,3,5,6,7,8,9,10,11,13a,14,14a,15,16,16a-hexadecahydrocyclopropa[e]pyrrolo[1,2-a][1,4]diazacyclopentadecin-6-yl)carbamate]	< 5.46 nM	< 5.46 nM
COc1ccc2c(O[C@@H]3C[C@H]4C(=O)N[C@]5(C(=O)NS(=O)(=O)C6CC6)C[C@H]5/C=C\CC[C@H](C)C[C@@H](C)[C@H](NC(=O)OC(C)(C)C)C(=O)N4C3)nc(N(C)C)cc2c1 [Compound 3120, tert-butyl ((2R,6S,7R,9S,13aS,14aR,16aS,Z)-14a-((cyclopropylsulfonyl)carbamoyl)-2-((3-(dimethylamino)-6-methoxyisoquinolin-1-yl)oxy)-7,9-dimethyl-5,16-dioxo-1,2,3,5,6,7,8,9,10,11,13a,14,14a,15,16,16a-hexadecahydrocyclopropa[e]pyrrolo[1,2-a][1,4]diazacyclopentadecin-6-yl)carbamate]	4.82 to 103 nM	4.82 to 103 nM
COc1ccc2c(O[C@@H]3C[C@H]4C(=O)N[C@]5(C(=O)NS(=O)(=O)C6CC6)C[C@H]5/C=C\CC[C@@H](C)C[C@@H](C)[C@H](NC(=O)OC(C)(C)C)C(=O)N4C3)nc(N(C)C)cc2c1 [Compound 3121, tert-butyl ((2R,6S,7R,9R,13aS,14aR,16aS,Z)-14a-((cyclopropylsulfonyl)carbamoyl)-2-((3-(dimethylamino)-6-methoxyisoquinolin-1-yl)oxy)-7,9-dimethyl-5,16-dioxo-1,2,3,5,6,7,8,9,10,11,13a,14,14a,15,16,16a-hexadecahydrocyclopropa[e]pyrrolo[1,2-a][1,4]diazacyclopentadecin-6-yl)carbamate]	4.82 to 103 nM	< 5.46 nM
COc1ccc2c(O[C@@H]3C[C@H]4C(=O)N[C@]5(C(=O)NS(=O)(=O)C6(CF)CC6)C[C@H]5/C=C\CC[C@H](C)C[C@@H](C)[C@H](NC(=O)OC(C)(C)C)C(=O)N4C3)nc(N(C)C)cc2c1 [Compound 3122, tert-butyl ((2R,6S,7R,9S,13aS,14aR,16aS,Z)-2-((3-(dimethylamino)-6-methoxyisoquinolin-1-yl)oxy)-14a-(((1-(fluoromethyl)cyclopropyl)sulfonyl)carbamoyl)-7,9-dimethyl-5,16-dioxo-1,2,3,5,6,7,8,9,10,11,13a,14,14a,15,16,16a-hexadecahydrocyclopropa[e]pyrrolo[1,2-a][1,4]diazacyclopentadecin-6-yl)carbamate]	4.82 to 103 nM	4.82 to 103 nM
COc1ccc2c(O[C@@H]3C[C@H]4C(=O)N[C@]5(C(=O)NS(=O)(=O)C6(CF)CC6)C[C@H]5/C=C\CC[C@@H](C)C[C@@H](C)[C@H](NC(=O)OC(C)(C)C)C(=O)N4C3)nc(N(C)C)cc2c1 [Compound 3123, tert-butyl ((2R,6S,7R,9R,13aS,14aR,16aS,Z)-2-((3-(dimethylamino)-6-methoxyisoquinolin-1-yl)oxy)-14a-(((1-(fluoromethyl)cyclopropyl)sulfonyl)carbamoyl)-7,9-dimethyl-5,16-dioxo-1,2,3,5,6,7,8,9,10,11,13a,14,14a,15,16,16a-hexadecahydrocyclopropa[e]pyrrolo[1,2-a][1,4]diazacyclopentadecin-6-yl)carbamate]	4.82 to 103 nM	4.82 to 103 nM

— patent US9499550B2 (BRISTOL-MYERS SQUIBB COMPANY, priority 2012, dated 2016)
